The term solubility denotes the concentration that dissolves in the medium under given conditions. Read a high solubility as a readily soluble substance.

These results are taken from ChEMBL document CHEMBL1944631, “Solid-state NMR analysis of calcium and d-mannose binding of BMY-28864, a water-soluble analogue of pradimicin A” (Bioorg Med Chem Lett, 2012).

Series [1] can be described thus: Solubility of the compound in phosphate buffered saline at pH 7.4. Type of series: physicochemical.
Series [2] in a line: Binding affinity to methyl alpha-D-mannopyranoside at -135 ppm by Solid-state CP/MAS 113Cd NMR spectroscopy.
Series [3] is described as follows: Binding affinity to [13C6]-methyl alpha-D-mannopyranoside by 2-DDARR in presence of Ca2+ relative to TMS.
Series [4] in a line: Binding affinity to methyl alpha-D-mannopyranoside at -129 ppm by Solid-state CP/MAS 113Cd NMR spectroscopy.

SMILES strings stand for the structures. ≈ marks a conversion by molar mass, not a printed value. Calls of active or inactive are those of the source. No cut-off for these calls is given here.

Molecule `CN[C@@H]1[C@H](O[C@@H]2OC[C@@H](O)[C@H](O)[C@H]2O)[C@@H](O)[C@H](O[C@H]2c3cc(C)c(C(=O)N[C@H](CO)C(=O)O)c(O)c3-c3c(cc4c(c3O)C(=O)c3cc(OC)cc(O)c3C4=O)[C@@H]2O)O[C@@H]1C` yielded a solubility in series [1] of 260 µg/mL (≈ 303 µM).
In the case of `CN[C@@H]1[C@H](O[C@@H]2OC[C@@H](O)[C@H](O)[C@H]2O)[C@@H](O)[C@H](O[C@H]2c3cc(C)c(C(=O)N[C@H](C)C(=O)O)c(O)c3-c3c(cc4c(c3O)C(=O)c3cc(OC)cc(O)c3C4=O)[C@@H]2O)O[C@@H]1C` [PRADIMICIN A], the concentration in solution in series [1] (solubility) came to 20 µg/mL (≈ 23.8 µM). For the same molecule, the result in series [2] and in series [3] was Active.
The molecule `COc1cc(O)c2c(c1)C(=O)c1c(cc3c(c1O)-c1c(cc(C)c(C(=O)N[C@H](CO)C(=O)O)c1O)[C@H](O[C@@H]1O[C@H](C)[C@H](N(C)C)[C@H](O[C@@H]4OC[C@@H](O)[C@H](O)[C@H]4O)[C@H]1O)[C@H]3O)C2=O` yielded a solubility in series [1] of over 20000 µg/mL. For the same molecule, the outcome in series [4] and in series [3] was Active.
